# Measurements: paper PMC8113459, “Selective inhibition of cullin 3 neddylation through covalent targeting DCN1 protects mice from acetaminophen-induced liver toxicity” (Nature Communications, 2021)
# Where “and” joins values, the source holds several entries; their conditions need not be identical. Identical values can stand only once. Like-named read-outs stand apart in the source and are kept apart here.
# Experiments:
# [1] = system: neddylation of cullin 1, 2, 4A, 4B, and 5; experiment: Western blot, neddylation of other cullin members; format: cell-based, human
# Method: (§1) Western blotting was performed as described previously. Treated cells were lysed by RIPA buffer supplemented with protease inhibitor. The expression level of indicated proteins was examined by immunoblotting analysis and GAPDH was used as the loading control. Antibodies were purchased commercially: cullin 1 (sc-17775, 1:500 dilution) and cullin 2 (sc-166506, 1:500 dilution) from Santa Cruz Biotech (Santa Cruz, CA); cullin 4A (PA5-14542, 1:1000 dilution), cullin 4B (PA5-50647, 1:1000 dilution), and DCN3 (DCUN1D3, PA5-44000, 1:1000 dilution) from Thermo Fisher Scientific (Wayne, MI); cullin 3 (2759, 1:1000), NRF2 (12721, 1:1000 dilution), HO-1 (70081, 1:1000 dilution), and Bim (2819, 1:1000 dilution) from Cell Signaling Technology (Boston, MA); DCN1 (GWB-E3D700, 1:1000 dilution) from GenWay Biotech (San Diego, CA); and cullin 5 (A302-173A, 1:500 dilution) from Bethyl Labs (Montgomery, TX). Results are representative of two independent experiments.
# [2] = system: APAP-induced liver injury; experiment: APAP-induced liver injury: ROS assay in liver tissue; format: in vivo, mouse
# Method: The in vivo studies were performed under animal protocols (PRO00007499) and (PRO00006638) approved by the Institutional Animal Care & Use Committee of the University of Michigan, in accordance with the recommendations in the Guide for the Care and Use of Laboratory Animals of the National Institutes of Health. C57BL/6 WT mice (~8 weeks, male, normal chow) were purchased from the Jackson Laboratory and randomly divided into eight groups (8–9 mice per group) treated (IP) as follows: phosphate-buffered saline vehicle once per day for 3 days (G1), APAP alone a single dose at 400 mg/kg on day 1 (G2), DI-1859 alone 25 mg/kg once per day for 3 days (G3), DI-1859 alone 50 mg/kg once per day for 3 days (G4), pretreatment (1 day before the APAP administration) with DI-1859 at 25 mg/kg once per day for 3 days followed with APAP at 400 mg/kg on day (G5), pretreatment (1 day before the APAP administration) with DI-1859 at 50 mg/kg once per day for 3 days followed with APAP at 400 mg/kg on day (G6), APAP a single dose at 400 mg/kg (3 h before the first DI-1859 administration) followed with DI-1859 at 25 mg/Kg once per day for 3 days (G7), and APAP a single dose at 400 mg/kg (3 h before the first DI-1859 administration) followed with DI-1859 at 50 mg/Kg once per day for 3 days (G8).
# To induce acute liver injury, animals received PBS or APAP (400 mg/kg, sigma, A7085) through I.P. injection at 12 p.m. and were sacrificed 48 h afterward. To examine the protective effect of DI-1859 (groups 5 and 6), animals were I.P. injected with compound for 3 consecutive days (9 a.m. on each day, starting 1 day before APAP administration). To examine the restorative effect of DI-1859 (groups 7 and 8), animals were I.P. injected with compound 3 h after APAP administration followed by two additional treatments (9 a.m. on the next 2 days). Body weight and blood glucose level measurement, along with blood sample collection, were performed at 12 p.m. on each day.
# Liver samples were homogenized in a lysis buffer and mixed with a dichlorofluorescein diacetate fluorescent probe (DCF, Sigma, D6883) to a final probe concentration of 5 µM for 1 h at 37 °C. DCF fluorescence was measured using a BioTek Synergy 2 Multi-Mode Microplate Reader (485 nm excitation and 527 nm emission).
# [3] = system: p21, BIM and CDT1 proteins; experiment: Western blot, CRL1 and CRL4A substrates; format: cell-based, human; conditions: THLE2, Fig. 6b
# Method: as §1
# [4] = Pharmacokinetics: concentrations in mouse plasma and liver; format: in vivo; conditions: for concentration at 1 h / concentration at 3 h / concentration at 6 h / concentration at 24 h: male, C57BL/6, mouse, ip
# Method: Supplementary Table 2A. Concentrations of DI-1548 in mouse Plasma and liver after the C57BL/6 male mice were treated with a single dose of DI-1548 at 25 mg/kg via intraperitoneal (IP) injection. BLQ: below the limit of quantification.
# Time point (h) Plasma (ng /mL) Liver (ng /g)
# Supplementary Table 2B. Concentrations of DI-1859 in mouse Plasma and liver after the C57BL/6 male mice were treated with a single dose of DI-1859 at 25 mg/kg via intraperitoneal (IP) injection. BLQ:
# Time point (h) Pl asma (ng /mL) Liver (ng /g) […]
# NQO1 mRNA = experiment: RT-PCR, NQO1 mRNA in THLE2 cells; format: cell-based, human; conditions: for NQO1 mRNA level relative to control: THLE2, 10 nM, replicates
# Method: Supplementary Figure 23. DI‐1859 increases the mRNA level of NRF2 ta rge te d genes NQO1 and
# HO‐1. THLE2 cells we re treated with DI‐1859 at 10 nM fo r 4, 8 and 24 h. Tr e a t e d cells were
# harvested and the mRNA level of HO‐1 and NQO1 we re exa m i n e d by RT‐PCR assay. The probes
# Scientific (Ann Arbor, MI). Data are presented as mean values with n = 2 independent biological […]
# [5] = G3: DI-1859 25 mg/kg, qD for 3 days
# [6] = G4: DI-1859 50 mg/kg, qD for 3 days
# [7] = G5: DI-1859 25 mg/kg qD for 3 days, APAP 400 mg/kg 3 h after the second dose
# [8] = G6: DI-1859 50 mg/kg qD for 3 days, APAP 400 mg/kg 3 h after the second dose
# [9] = G7: APAP 400 mg/kg, then DI-1859 25 mg/kg 3 h after APAP and on day 2 and 3
# [10] = G8: APAP 400 mg/kg, then DI-1859 50 mg/kg 3 h after APAP and on day 2 and 3
# [11] = C57BL/6 male mice, 25 mg/kg IP, 6 h
# [12] = C57BL/6 male mice, 25 mg/kg IP, 24 h
structure (smiles),measurement,setting,value
C=C(CN(C)C)C(=O)NC[C@@H](NC(=O)[C@H](Cc1nc2ccc(C(C)C)cc2s1)NC(=O)CC)C1CCCCC1 [DI-1859],inhibition of neddylation of cullin members,"[1]; THLE2, Fig. 6b","similar, high selectivity"
same,selectivity in inhibition of the neddylation of cullin 3 over other cullin members,[1]; a number of cell lines,1000 fold
same,"ROS level in mouse liver tissue, mean",[2]; [5],7.034 A.U./ug
same,"ROS level normalised to the mean of G1 (vehicle), mean",[2]; [5],0.9296
same,"ROS level in mouse liver tissue, mean",[2]; [6],7.229 A.U./ug
same,"ROS level normalised to the mean of G1 (vehicle), mean",[2]; [6],0.9554
same,"ROS level in mouse liver tissue, mean",[2]; [7],10.9296 A.U./ug
same,"ROS level normalised to the mean of G1 (vehicle), mean",[2]; [7],1.445
same,"ROS level in mouse liver tissue, mean",[2]; [8],8.337 A.U./ug
same,"ROS level normalised to the mean of G1 (vehicle), mean",[2]; [8],1.102
same,"ROS level in mouse liver tissue, mean",[2]; [9],10.4847 A.U./ug
same,"ROS level normalised to the mean of G1 (vehicle), mean",[2]; [9],1.3857
same,"ROS level in mouse liver tissue, mean",[2]; [10],10.3541 A.U./ug
same,"ROS level normalised to the mean of G1 (vehicle), mean",[2]; [10],1.368
same,effect on the level of reactive oxygen species (ROS),[2]; prevention and treatment settings,effectively reduced the level of reactive oxygen species
same,effect on protein level of CDT1,[3],no effect
same,time by which the compounds were cleared from systemic circulation,[4]; 25 mg/kg IP,< 3 h
same,Liver concentration,[4]; [11],BLQ
same,Plasma concentration,[4]; [11],BLQ
same,Liver concentration,[4]; [12],BLQ
same,Plasma concentration,[4]; [12],BLQ
same,concentration at 1 h,"[4]; liver, 25 mg/kg, C57BL/6 male mice, 25 mg/kg IP, 1 h, read-out: Liver concentration",3280 ± 531 ng/g
same,concentration at 3 h,"[4]; liver, 25 mg/kg, C57BL/6 male mice, 25 mg/kg IP, 3 h, read-out: Liver concentration",30 ± 29 ng/g
same,concentration at 1 h,"[4]; liver, 25 mg/kg, mouse liver, IP 25mg/kg, 1h, mean of 3 mice, read-out: Concentration in mouse liver, MEAN",3280 ng/g
same,concentration at 1 h,"[4]; liver, 25 mg/kg, mouse liver, IP 25mg/kg, 1h, single animals, read-out: Concentration in mouse liver, individual mice 1, 2, 3",3880 ng/g
same,concentration at 3 h,"[4]; liver, 25 mg/kg, mouse liver, IP 25mg/kg, 3h, mean of 3 mice, read-out: Concentration in mouse liver, MEAN",30.3 ng/g
same,concentration at 6 h,"[4]; liver, 25 mg/kg, mouse liver, IP 25mg/kg, 6h, mean of 3 mice, read-out: Concentration in mouse liver, MEAN",2.27 ng/g
same,concentration at 24 h,"[4]; liver, 25 mg/kg, mouse liver, IP 25mg/kg, 24h, mean, read-out: Concentration in mouse liver, MEAN",1.46 ng/g
same,concentration at 24 h,"[4]; liver, 25 mg/kg, mouse liver, IP 25mg/kg, 24h, single animals, read-out: Concentration in mouse liver, individual mice 1, 2, 3",1.56 ng/g
same,concentration at 1 h,"[4]; plasma, 25 mg/kg, C57BL/6 male mice, 25 mg/kg IP, 1 h, read-out: Plasma concentration",1740 ± 292 ng/mL
same,concentration at 3 h,"[4]; plasma, 25 mg/kg, C57BL/6 male mice, 25 mg/kg IP, 3 h, read-out: Plasma concentration",28 ± 12 ng/mL
same,concentration at 1 h,"[4]; plasma, 25 mg/kg, mouse plasma, IP 25mg/kg, 1h, mean of 3 mice, read-out: Concentration in mouse plasma, MEAN",1740 ng/mL
same,concentration at 1 h,"[4]; plasma, 25 mg/kg, mouse plasma, IP 25mg/kg, 1h, single animals, read-out: Concentration in mouse plasma, individual mice 1, 2, 3",2070 ng/mL
same,concentration at 3 h,"[4]; plasma, 25 mg/kg, mouse plasma, IP 25mg/kg, 3h, mean of 3 mice, read-out: Concentration in mouse plasma, MEAN",27.9 ng/mL
same,concentration at 6 h,"[4]; plasma, 25 mg/kg, mouse plasma, IP 25mg/kg, 6h, mean (only one mouse above the limit of quantification), read-out: Concentration in mouse plasma, MEAN",1.04 ng/mL
same,concentration at 6 h,"[4]; plasma, 25 mg/kg, mouse plasma, IP 25mg/kg, 6h, single animals, limit of quantification 1 ng/mL, read-out: Concentration in mouse plasma, individual mice 1, 2, 3",< 1 ng/mL
same,concentration at 24 h,"[4]; plasma, 25 mg/kg, mouse plasma, IP 25mg/kg, 24h, single animals, limit of quantification 1 ng/mL, read-out: Concentration in mouse plasma, individual mice 1, 2, 3",< 1 ng/mL
same,"Concentration in mouse liver, individual mice 1, 2, 3","[4]; mouse liver, IP 25mg/kg, 1h, single animals, 25 mg/kg",3079.98 ng/g and 2879.94 ng/g
same,"Concentration in mouse liver, individual mice 1, 2, 3","[4]; mouse liver, IP 25mg/kg, 3h, single animals, 25 mg/kg",13.04 ng/g and 64.07 ng/g and 13.91 ng/g
same,"Concentration in mouse liver, individual mice 1, 2, 3","[4]; mouse liver, IP 25mg/kg, 6h, single animals, 25 mg/kg",1.59 ng/g
same,"Concentration in mouse liver, individual mice 1, 2, 3","[4]; mouse liver, IP 25mg/kg, 24h, single animals, 25 mg/kg",1.41 ng/g and 1.40 ng/g
same,"Concentration in mouse plasma, individual mice 1, 2, 3","[4]; mouse plasma, IP 25mg/kg, 1h, single animals, 25 mg/kg",1549.72 ng/mL and 1588.65 ng/mL
same,"Concentration in mouse plasma, individual mice 1, 2, 3","[4]; mouse plasma, IP 25mg/kg, 3h, single animals, 25 mg/kg",36.02 ng/mL and 14.64 ng/mL and 33.18 ng/mL
same,"Concentration in mouse plasma, individual mice 1, 2, 3","[4]; mouse plasma, IP 25mg/kg, 6h, single animals, limit of quantification 1 ng/mL, 25 mg/kg",<1 ng/mL and 1.04 ng/mL
same,"Concentration in mouse plasma, individual mice 1, 2, 3","[4]; mouse plasma, IP 25mg/kg, 24h, single animals, limit of quantification 1 ng/mL",<1 ng/mL
same,NQO1 mRNA level relative to control,NQO1 mRNA; 4 h (time from row order and b199),2.3 and 2
same,NQO1 mRNA level relative to control,NQO1 mRNA; 8 h (time from row order and b199),2.7 and 2.6
same,NQO1 mRNA level relative to control,NQO1 mRNA; 24 h (time from row order and b199),19.3 and 16
same,increase of NQO1 mRNA level,"NQO1 mRNA; THLE2 liver cells, qRT-PCR",17 folds
